pIC50: −log10 of the molar value. Like-named read-outs stand apart in the source and are kept apart here. Starred links: 1 amine or outer side, 2 acyl side, 3 side chain; linkers in the order of their positions; H or OH if unused. Positions of bridges follow the written chain, without caps; N, C: chain ends. Non-standard residues stand in square brackets, D forms with d. Residues, ends and D or L forms follow the SMILES beside them. *: point of attachment. Arg(Nω,Nω'-propylene) = N[C@@H](CCCNC1=NCCCN1)C(=O)O; Arg(NO2) = N=C(NCCC[C@H](N)C(=O)O)N[N+](=O)[O-]; dαMeDab = C[C@](CCN[*:3])(N[*:1])C(=O)[*:2]; Arg(Me2a) = CN(C)C(=N)NCCC[C@H](N)C(=O)O; Arg(ω-nPr) = CCCNC(=N)NCCC[C@H](N)C(=O)O; dPhe(3-F) = N[C@H](Cc1cccc(F)c1)C(=O)O; dPhe(4-F) = N[C@H](Cc1ccc(F)cc1)C(=O)O; d1Nal = N[C@H](Cc1cccc2ccccc12)C(=O)O; Arg(Et) = CCNC(=N)NCCC[C@H](N)C(=O)O; dGly(cPent) = N[C@@H](C(=O)O)C1CCCC1; dPhe(2-F) = N[C@H](Cc1ccccc1F)C(=O)O; dCha = N[C@H](CC1CCCCC1)C(=O)O; dChg = N[C@@H](C(=O)O)C1CCCCC1; Isobutyryl = CC(C)C(=O)*; Abu = CC[C@H](N)C(=O)O
System: MOLM-13 leukemia cells carrying MLL-AF9 fusion
Test: cell viability assay (WST-8), MOLM-13
Format: cell-based
Conditions: Homo sapiens, MOLM-13, 96 h; for pIC50: Table 2A, 4 days treatment, read-out: MOLM-13 IC50; for IC50: read-out: MOLM-13 IC50 (μM)

Structure (SMILES)	pIC50	IC50 [µM]
CC[C@@H]1NC(=O)[C@H](CCCNC(=N)N[N+](=O)[O-])NC(=O)[C@](C)(NC(=O)C(C)C)CCNC(=O)[C@@H](CC2CCCCC2)NC1=O [Cpd. No. 32, N-((3R,6S,9S,12R)-3-(cyclohexylmethyl)-6-ethyl-12-methyl-9-(3-(3-nitroguanidino)propyl)-2,5,8,11-tetraoxo-1,4,7,10-tetraazacyclotetradecan-12-yl)isobutyramide] (Isobutyryl-[dαMeDab][Arg(NO2)][Abu][dCha]; lactam 1-C)	< 5.00	–
CC[C@@H]1NC(=O)[C@H](CCCNC(=N)NC#N)NC(=O)[C@](C)(NC(=O)C(C)C)CCNC(=O)[C@@H](CC2CCCCC2)NC1=O [Cpd. No. 33, N-((3R,6S,9S,12R)-9-(3-(3-cyanoguanidino)propyl)-3-(cyclohexylmethyl)-6-ethyl-12-methyl-2,5,8,11-tetraoxo-1,4,7,10-tetraazacyclotetradecan-12-yl)isobutyramide]	–	6.5
CC[C@@H]1NC(=O)[C@H](CCCNC(=N)NN)NC(=O)[C@](C)(NC(=O)C(C)C)CCNC(=O)[C@@H](CC2CCCCC2)NC1=O [Cpd. No. 34, N-((3R,6S,9S,12R)-3-(cyclohexylmethyl)-6-ethyl-9-(3-(hydrazinecarboximidamido)propyl)-12-methyl-2,5,8,11-tetraoxo-1,4,7,10-tetraazacyclotetradecan-12-yl)isobutyramide]	–	> 10
CC[C@@H]1NC(=O)[C@H](CCCNC(=N)NC(=N)N)NC(=O)[C@](C)(NC(=O)C(C)C)CCNC(=O)[C@@H](CC2CCCCC2)NC1=O [Cpd. No. 35, N-((3R,6S,9S,12R)-9-(3-(3-carbamimidoylguanidino)propyl)-3-(cyclohexylmethyl)-6-ethyl-12-methyl-2,5,8,11-tetraoxo-1,4,7,10-tetraazacyclotetradecan-12-yl)isobutyramide]	–	> 10
CC[C@@H]1NC(=O)[C@H](CCCNC(=N)N(C)C)NC(=O)[C@](C)(NC(=O)C(C)C)CCNC(=O)[C@@H](CC2CCCCC2)NC1=O [Cpd. No. 36, N-((3R,6S,9S,12R)-3-(cyclohexylmethyl)-9-(3-(3,3-dimethylguanidino)propyl)-6-ethyl-12-methyl-2,5,8,11-tetraoxo-1,4,7,10-tetraazacyclotetradecan-12-yl)isobutyramide] (Isobutyryl-[dαMeDab][Arg(Me2a)][Abu][dCha]; lactam 1-C)	–	> 10
CC[C@@H]1NC(=O)[C@H](CCCNC2=NCCCN2)NC(=O)[C@](C)(NC(=O)C(C)C)CCNC(=O)[C@@H](CC2CCCCC2)NC1=O [Cpd. No. 40, N-((3R,6S,9S,12R)-3-(cyclohexylmethyl)-6-ethyl-12-methyl-2,5,8,11-tetraoxo-9-(3-((1,4,5,6-tetrahydropyrimidin-2-yl)amino)propyl)-1,4,7,10-tetraazacyclotetradecan-12-yl)isobutyramide] (Isobutyryl-[dαMeDab][Arg(Nω,Nω'-propylene)][Abu][dCha]; lactam 1-C)	–	0.88
CC[C@@H]1NC(=O)[C@H](CCCN2CCN(C)CC2)NC(=O)[C@](C)(NC(=O)C(C)C)CCNC(=O)[C@@H](CC2CCCCC2)NC1=O [Cpd. No. 43, N-((3R,6S,9S,12R)-3-(cyclohexylmethyl)-6-ethyl-12-methyl-9-(3-(4-methylpiperazin-1-yl)propyl)-2,5,8,11-tetraoxo-1,4,7,10-tetraazacyclotetradecan-12-yl)isobutyramide]	–	> 10
CCNC(=N)NCCC[C@@H]1NC(=O)[C@](C)(NC(=O)C(C)C)CCNC(=O)[C@@H](CC2CCCCC2)NC(=O)[C@H](CC)NC1=O [Cpd. No. 45, N-((3R,6S,9S,12R)-3-(cyclohexylmethyl)-6-ethyl-9-(3-(3-ethylguanidino)propyl)-12-methyl-2,5,8,11-tetraoxo-1,4,7,10-tetraazacyclotetradecan-12-yl)isobutyramide] (Isobutyryl-[dαMeDab][Arg(Et)][Abu][dCha]; lactam 1-C)	–	3.4
CCCNC(=N)NCCC[C@@H]1NC(=O)[C@](C)(NC(=O)C(C)C)CCNC(=O)[C@@H](CC2CCCCC2)NC(=O)[C@H](CC)NC1=O [Cpd. No. 46, N-((3R,6S,9S,12R)-3-(cyclohexylmethyl)-6-ethyl-12-methyl-2,5,8,11-tetraoxo-9-(3-(3-propylguanidino)propyl)-1,4,7,10-tetraazacyclotetradecan-12-yl)isobutyramide] (Isobutyryl-[dαMeDab][Arg(ω-nPr)][Abu][dCha]; lactam 1-C)	–	> 10
CCCCNC(=N)NCCC[C@@H]1NC(=O)[C@](C)(NC(=O)C(C)C)CCNC(=O)[C@@H](CC2CCCCC2)NC(=O)[C@H](CC)NC1=O [Cpd. No. 47, N-((3R,6S,9S,12R)-9-(3-(3-butylguanidino)propyl)-3-(cyclohexylmethyl)-6-ethyl-12-methyl-2,5,8,11-tetraoxo-1,4,7,10-tetraazacyclotetradecan-12-yl)isobutyramide]	–	> 10
CC[C@@H]1NC(=O)[C@H](CCCNC(=N)N)NC(=O)[C@](C)(NC(=O)C(C)C)CCNC(=O)[C@@H](C)NC1=O [Cpd. No. 48, N-((3R,6S,9S,12R)-6-ethyl-9-(3-guanidinopropyl)-3,12-dimethyl-2,5,8,11-tetraoxo-1,4,7,10-tetraazacyclotetradecan-12-yl)isobutyramide] (Isobutyryl-[dαMeDab]R[Abu][dA]; lactam 1-C)	5.76	–
CC[C@@H]1NC(=O)[C@H](CCCNC(=N)N)NC(=O)[C@](C)(NC(=O)C(C)C)CCNC(=O)[C@@H](CC(C)C)NC1=O [Cpd. No. 49, N-((3R,6S,9S,12R)-6-ethyl-9-(3-guanidinopropyl)-3-isobutyl-12-methyl-2,5,8,11-tetraoxo-1,4,7,10-tetraazacyclotetradecan-12-yl)isobutyramide] (Isobutyryl-[dαMeDab]R[Abu][dL]; lactam 1-C)	5.73	–
CC[C@@H]1NC(=O)[C@H](CCCNC(=N)N)NC(=O)[C@](C)(NC(=O)C(C)C)CCNC(=O)[C@@H](C2CCCC2)NC1=O [Cpd. No. 50, N-((3R,6S,9S,12R)-3-cyclopentyl-6-ethyl-9-(3-guanidinopropyl)-12-methyl-2,5,8,11-tetraoxo-1,4,7,10-tetraazacyclotetradecan-12-yl)isobutyramide] (Isobutyryl-[dαMeDab]R[Abu][dGly(cPent)]; lactam 1-C)	–	1.19
CC[C@@H]1NC(=O)[C@H](CCCNC(=N)N)NC(=O)[C@](C)(NC(=O)C(C)C)CCNC(=O)[C@@H](C2CCCCC2)NC1=O [Cpd. No. 51, N-((3R,6S,9S,12R)-3-cyclohexyl-6-ethyl-9-(3-guanidinopropyl)-12-methyl-2,5,8,11-tetraoxo-1,4,7,10-tetraazacyclotetradecan-12-yl)isobutyramide] (Isobutyryl-[dαMeDab]R[Abu][dChg]; lactam 1-C)	–	0.64
CC[C@@H]1NC(=O)[C@H](CCCNC(=N)N)NC(=O)[C@](C)(NC(=O)C(C)C)CCNC(=O)[C@@H](CC2CCCCC2)NC1=O [Cpd. No. 52, N-((3R,6S,9S,12R)-3-(cyclohexylmethyl)-6-ethyl-9-(3-guanidinopropyl)-12-methyl-2,5,8,11-tetraoxo-1,4,7,10-tetraazacyclotetradecan-12-yl)isobutyramide] (Isobutyryl-[dαMeDab]R[Abu][dCha]; lactam 1-C)	–	1.49
CC[C@@H]1NC(=O)[C@H](CCCNC(=N)N)NC(=O)[C@](C)(NC(=O)C(C)C)CCNC(=O)[C@@H](Cc2ccccc2)NC1=O [Cpd. No. 54, N-((3R,6S,9S,12R)-3-benzyl-6-ethyl-9-(3-guanidinopropyl)-12-methyl-2,5,8,11-tetraoxo-1,4,7,10-tetraazacyclotetradecan-12-yl)isobutyramide] (Isobutyryl-[dαMeDab]R[Abu][dF]; lactam 1-C)	5.80	–
CC[C@@H]1NC(=O)[C@H](CCCNC(=N)N)NC(=O)[C@](C)(NC(=O)C(C)C)CCNC(=O)[C@@H](Cc2ccccc2F)NC1=O [Cpd. No. 55, N-((3R,6S,9S,12R)-6-ethyl-3-(2-fluorobenzyl)-9-(3-guanidinopropyl)-12-methyl-2,5,8,11-tetraoxo-1,4,7,10-tetraazacyclotetradecan-12-yl)isobutyramide] (Isobutyryl-[dαMeDab]R[Abu][dPhe(2-F)]; lactam 1-C)	–	3.59
CC[C@@H]1NC(=O)[C@H](CCCNC(=N)N)NC(=O)[C@](C)(NC(=O)C(C)C)CCNC(=O)[C@@H](Cc2cccc(F)c2)NC1=O [Cpd. No. 56, N-((3R,6S,9S,12R)-6-ethyl-3-(3-fluorobenzyl)-9-(3-guanidinopropyl)-12-methyl-2,5,8,11-tetraoxo-1,4,7,10-tetraazacyclotetradecan-12-yl)isobutyramide] (Isobutyryl-[dαMeDab]R[Abu][dPhe(3-F)]; lactam 1-C)	–	1.29
CC[C@@H]1NC(=O)[C@H](CCCNC(=N)N)NC(=O)[C@](C)(NC(=O)C(C)C)CCNC(=O)[C@@H](Cc2ccc(F)cc2)NC1=O [Cpd. No. 57, N-((3R,6S,9S,12R)-6-ethyl-3-(4-fluorobenzyl)-9-(3-guanidinopropyl)-12-methyl-2,5,8,11-tetraoxo-1,4,7,10-tetraazacyclotetradecan-12-yl)isobutyramide] (Isobutyryl-[dαMeDab]R[Abu][dPhe(4-F)]; lactam 1-C)	–	6.51
CC[C@@H]1NC(=O)[C@H](CCCNC(=N)N)NC(=O)[C@](C)(NC(=O)C(C)C)CCNC(=O)[C@@H](Cc2cccc3ccccc23)NC1=O [Cpd. No. 58, N-((3R,6S,9S,12R)-6-ethyl-9-(3-guanidinopropyl)-12-methyl-3-(naphthalen-1-ylmethyl)-2,5,8,11-tetraoxo-1,4,7,10-tetraazacyclotetradecan-12-yl)isobutyramide] (Isobutyryl-[dαMeDab]R[Abu][d1Nal]; lactam 1-C)	–	2.37
CC[C@@H]1NC(=O)[C@H](CCCNC(=N)N)NC(=O)[C@](C)(NC(=O)C(C)C)CCNC(=O)[C@@](C)(c2ccccc2)NC1=O [Cpd. No. 78, N-((3R,6S,9S,12R)-6-ethyl-9-(3-guanidinopropyl)-3,12-dimethyl-2,5,8,11-tetraoxo-3-phenyl-1,4,7,10-tetraazacyclotetradecan-12-yl)isobutyramide]	–	> 10
